The test system of this test is E. coli AID#172. Briefly: Neutropenic thigh infection model, dose-response and estimation of ED50 (Example 4). Format: in vivo, Escherichia coli. The protocol:
The purpose of this study was to investigate the dose-response relationship following intravenous (i.v.) administration of a single dose of NZ17074 ranging from 0.16-12 mg/kg. The effect was tested against E. coli AID#172 in the neutropenic thigh model. Treatment with 40 mg/kg meropenem was included as a positive control group. The colony counts in thighs were determined at 5 hours after treatment.
The thigh infection model is a well-recognized model for studies of antimicrobial effect and tissue penetration as described by S. Gudmundsson & H. Erlensdóttir: Handbook of Animal Models of Infection (1999), ed. by O. Zak & M. A. Sande, Academic Press, San Diego, US and in several publications. Reviewed by D. Andes & C. Craig: Animal model pharmacokinetics and pharmacodynamics: a critical review. International Journal of Antimicrobial Agents 19(4): 261-268.
• 40 outbred, NMRI female mice, 25-30 grams (Harlan Scandinavia) • E. coli AID#172 from Statens Serum Institute, Copenhagen, Denmark: Clinical isolate from a human wound from 2003. Multiresistant (Ampicillin, Ceftazidime, Aztreonam, Gentamicin, Ciprofloxacin) • NZ17074 in Ringer Acetate, pH 6: 1.2 mg/ml, 6.0 ml. The solution was stored at 4° C. until use. Analyses of the dose formulations used were performed after completion of the in-life phase of the study and gave the following results: […]
The mice were observed during the study and scored 0-5 based on their behaviour and clinical signs. • Score 0: Healthy. • Score 1: Minor clinical signs of infection and inflammation e.g. observations of minor signs of distress or changed activity. • Score 2: Clear signs of infection like, social withdrawal, lack of curiosity, changed body position, piloerection, or changes in pattern of movement. • Score 3: Severe signs of infection like stiff movements, lack of curiosity, changed body position, piloerection, pain, or changes in pattern of movement. • Score 4: Severe pain and the mouse was sacrificed immediately to minimize the suffering of the animal. • Score 5: The mouse was dead.
Colony counts were determined from thighs at 0 and 5 hours. […]

SMILES strings stand for the structures. “And” between values parts separate entries of the source, which are not always exact repeats. Equal values may be shown once.

Consider `C[C@@H](O)[C@H]1C(=O)N2C(C(=O)O)=C(S[C@@H]3CN[C@H](C(=O)N(C)C)C3)[C@H](C)[C@H]12` [meropenem], for which the “CFU levels in thigh compared to vehicle” value (40 mg/kg i.v., 5 hours) was “slight but not significant reduction”. Further, under “Meropenem 40 mg/kg single dose, thigh, T = 5, group mean without outlier, not significant vs vehicle”, the “log10 CFU thigh mean” value is listed as 4.25 log10 CFU/ml. Moreover, the “log10 CFU thigh” value (Meropenem 40 mg/kg single dose, thigh, T = 5, individual mice, ¤ value excluded from mean as outlier) was 3.08¤ log10 CFU/ml and 3.81¤ log10 CFU/ml and 4.99 log10 CFU/ml and 3.94 log10 CFU/ml.

The record behind these values is patent US20160158317A1, “Antimicrobial Peptide Variants and Polynucleotides Encoding Same” (Adenium Biotech A/S, priority 2010, published 2016).
